Laboratory results published in ChEMBL document CHEMBL1201862, “PubChem BioAssay data set” (2004).
Calls of active or inactive are those of the source.

Tests used:
[1] = biological target: T1, Serine/threonine-protein kinase TAO1 (Homo sapiens, UniProt Q7L7X3); type: functional
T1 sequence (Q7L7X3 whole entry): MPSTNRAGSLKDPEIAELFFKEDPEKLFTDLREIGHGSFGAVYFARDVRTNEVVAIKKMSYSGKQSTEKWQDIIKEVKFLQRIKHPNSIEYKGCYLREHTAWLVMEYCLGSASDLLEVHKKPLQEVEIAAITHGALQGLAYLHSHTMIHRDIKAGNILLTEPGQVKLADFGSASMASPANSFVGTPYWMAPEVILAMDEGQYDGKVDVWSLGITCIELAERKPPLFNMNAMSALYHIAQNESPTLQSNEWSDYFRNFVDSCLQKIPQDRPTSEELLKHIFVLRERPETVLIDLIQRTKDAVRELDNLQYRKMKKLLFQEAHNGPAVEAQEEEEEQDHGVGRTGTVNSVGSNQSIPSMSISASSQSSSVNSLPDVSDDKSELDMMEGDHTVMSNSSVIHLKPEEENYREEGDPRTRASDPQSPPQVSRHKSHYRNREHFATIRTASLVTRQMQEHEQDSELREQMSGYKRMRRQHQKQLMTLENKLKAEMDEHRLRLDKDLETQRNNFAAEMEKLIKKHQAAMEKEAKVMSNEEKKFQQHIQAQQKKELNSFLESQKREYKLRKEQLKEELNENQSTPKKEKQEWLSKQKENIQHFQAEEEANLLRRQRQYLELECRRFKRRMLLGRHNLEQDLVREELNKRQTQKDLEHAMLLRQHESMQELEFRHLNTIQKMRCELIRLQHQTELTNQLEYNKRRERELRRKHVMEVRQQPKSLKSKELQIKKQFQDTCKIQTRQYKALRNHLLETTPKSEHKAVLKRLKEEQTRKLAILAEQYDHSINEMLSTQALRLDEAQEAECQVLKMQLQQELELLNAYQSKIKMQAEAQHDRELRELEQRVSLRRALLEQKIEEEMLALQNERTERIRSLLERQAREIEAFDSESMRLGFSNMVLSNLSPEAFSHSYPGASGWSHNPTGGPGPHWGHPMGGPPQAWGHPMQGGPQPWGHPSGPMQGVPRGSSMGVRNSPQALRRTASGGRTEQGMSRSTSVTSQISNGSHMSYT

[2] = biological target: Tyrosine-protein kinase Fyn (Homo sapiens, UniProt P06241); type: functional
[3] = biological target: Tyrosine-protein kinase BTK (Homo sapiens, UniProt Q06187); type: functional
[4] = biological target: Calcium/calmodulin-dependent protein kinase type II subunit alpha (Homo sapiens, UniProt Q9UQM7); test: Navigating the Kinome. Panel member name: CAMK2A; type: functional
[5] = biological target: Mitogen-activated protein kinase 14 (Homo sapiens, UniProt Q16539); type: functional;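 also: part of a kinome-wide panel, MAPK14 entry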
[6] = biological target: ALK tyrosine kinase receptor (Homo sapiens, UniProt Q9UM73); type: functional;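 also: ALK tested as one member of a kinase panel screen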
[7] = biological target: Tyrosine-protein kinase Lck (Homo sapiens, UniProt P06239); type: functional;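 also: lck was assayed as one member of a kinase panel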
Focal adhesion kinase 1 = Focal adhesion kinase 1 (Homo sapiens, UniProt Q05397); type: functional;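 also: measured as one member of a kinome panel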
[8] = biological target: DNA dC->dU-editing enzyme APOBEC-3A (Homo sapiens, UniProt P31941); test: SAR analysis of small molecule inhibitors of APOBEC3A DNA Deaminase via a fluorescence-based single-stranded DNA deaminase assay.; type: functional; conditions: read-out: IC50_Mean
[9] = biological target: DNA dC->dU-editing enzyme APOBEC-3G (Homo sapiens, UniProt Q9HC16); test: inhibition of APOBEC3G ssDNA deamination – biochemical, fluorescence, single-stranded DNA substrate, SAR follow-up (AID 602136); type: functional; conditions: read-out: IC50_Mean
[10] = biological target: Protein disulfide-isomerase (Homo sapiens, UniProt P07237); test: inhibition of PDI-driven insulin aggregation – biochemical, turbidity, absorbance, cherry-picked samples, dose response (AID 602350); type: functional
[11] = biological target: Voltage-dependent T-type calcium channel subunit alpha-1H (Homo sapiens, UniProt O95180); type: functional;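 also: channel activity triggered by adding a high calcium stimulation buffer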
[12] = biological target: Multidrug resistance protein CDR1 (Candida albicans, UniProt P43071); test: inhibition of Nile Red efflux via Candida CDR1 – S. cerevisiae AD1-8u, singleplex, Cherry Pick1 hits, dose response (AID 588606); type: functional
[13] = biological target: T2, Apoptotic protease-activating factor 1 (Homo sapiens, UniProt O14727); test: SAR analysis of small molecule inhibitors of Apaf-1 in a Fluorescent assay.; type: functional; conditions: read-out: IC50_Mean
T2 sequence (O14727 whole entry): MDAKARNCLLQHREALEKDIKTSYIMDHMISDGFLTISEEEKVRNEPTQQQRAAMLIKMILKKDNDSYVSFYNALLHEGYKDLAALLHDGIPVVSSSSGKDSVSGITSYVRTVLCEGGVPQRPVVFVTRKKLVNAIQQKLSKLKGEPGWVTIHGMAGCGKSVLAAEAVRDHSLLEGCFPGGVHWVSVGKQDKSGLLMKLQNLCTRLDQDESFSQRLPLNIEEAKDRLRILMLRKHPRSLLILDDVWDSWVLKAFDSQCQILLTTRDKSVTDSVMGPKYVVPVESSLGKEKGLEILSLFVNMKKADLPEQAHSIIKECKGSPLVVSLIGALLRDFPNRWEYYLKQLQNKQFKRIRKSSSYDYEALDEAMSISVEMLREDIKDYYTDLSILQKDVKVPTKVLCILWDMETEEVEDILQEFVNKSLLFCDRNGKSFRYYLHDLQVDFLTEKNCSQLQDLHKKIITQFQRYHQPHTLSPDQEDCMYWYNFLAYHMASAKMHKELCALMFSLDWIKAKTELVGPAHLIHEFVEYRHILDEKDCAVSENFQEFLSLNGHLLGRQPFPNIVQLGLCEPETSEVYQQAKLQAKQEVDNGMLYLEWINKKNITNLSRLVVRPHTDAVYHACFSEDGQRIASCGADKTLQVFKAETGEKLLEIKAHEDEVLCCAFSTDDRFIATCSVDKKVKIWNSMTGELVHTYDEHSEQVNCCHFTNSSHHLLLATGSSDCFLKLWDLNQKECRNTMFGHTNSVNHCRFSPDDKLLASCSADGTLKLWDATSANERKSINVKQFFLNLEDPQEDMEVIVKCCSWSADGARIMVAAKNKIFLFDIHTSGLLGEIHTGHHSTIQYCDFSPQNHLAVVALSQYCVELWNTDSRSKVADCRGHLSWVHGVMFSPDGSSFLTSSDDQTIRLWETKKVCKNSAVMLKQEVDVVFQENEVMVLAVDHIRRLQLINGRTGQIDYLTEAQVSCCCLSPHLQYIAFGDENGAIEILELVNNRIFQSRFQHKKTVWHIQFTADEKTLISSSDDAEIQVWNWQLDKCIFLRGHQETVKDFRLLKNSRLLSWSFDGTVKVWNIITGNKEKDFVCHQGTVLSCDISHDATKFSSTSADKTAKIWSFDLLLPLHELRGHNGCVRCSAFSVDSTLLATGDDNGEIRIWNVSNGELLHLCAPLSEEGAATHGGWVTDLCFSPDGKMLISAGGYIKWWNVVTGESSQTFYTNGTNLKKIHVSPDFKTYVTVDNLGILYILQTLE

[14] = Mcl1-dependent cancer cell viability – HMC-1-8 cells, luminescence, dry powder, selectivity assay for A1 inhibitor project, dose response (AID 504415); type: functional, cell-based; conditions: Homo sapiens
[15] = mRNA 3' processing disruption, beta-gal signal increase – luminescence, S. cerevisiae SKY197-pL101, dose response (AID 2525); type: functional, cell-based
Beta-lactamase [16] = biological target: Beta-lactamase (Pseudomonas aeruginosa, UniProt Q79MP6);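 also: biochemical dose-response test of metallo-beta-lactamase enzyme inhibition, read out by epi-absorbance; purified recombinant IMP-1 metallo-beta-lactamase with nitrocefin as substrate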
[17] = biological target: 72 kDa type IV collagenase (Homo sapiens, UniProt P08253); test: Dose Response validation of uHTS RPN11 inhibitor hits using a MMP-2 Fluorescence assay.; type: functional
Prothrombin = Prothrombin (Bos taurus, UniProt P00735); test: thrombin protease inhibitors – biochemical, fluorescence polarization, uHTS hits, dose response (AID 602369); type: functional
[18] = biological target: 26S proteasome non-ATPase regulatory subunit 14 (Homo sapiens, UniProt O00487); test: inhibition of proteasome subunit RPN11 – biochemical, fluorescence polarization, uHTS hits, confirmation (AID 602368); type: functional
Beta-lactamase [19] = biological target: Beta-lactamase (Salmonella choleraesuis (strain SC-B67), UniProt Q5J463)
[20] = Luminescence Cell-Based Dose Confirmation HTS to Identify Inhibitors of Polyadenylation.; type: functional
Insulin-degrading enzyme [21] = biological target: T3, Insulin-degrading enzyme (Homo sapiens, UniProt P14735); test: cellular IDE activation of Abeta substrate cleavage – fluorescence polarization, HEK cells, dose response (AID 588439); type: functional, cell-based
Insulin-degrading enzyme [22] = biological target: T3, Insulin-degrading enzyme; test: recombinant IDE activation, cell-free – biochemical, fluorescence polarization, counter-screen for IDE activator project, dose response (AID 588681)
HEK293 [23] = test: optical interference in Abeta FP readout, dose response, artefact control for IDE activator project, biochemical, fluorescence polarization (AID 588442); type: functional, cell-based; conditions: Homo sapiens
HEK293 [24] = test: membrane integrity loss in HEK cells – cell-based, fluorescence, cytotoxicity control for IDE activator project, dose response (AID 588440); type: functional; conditions: Homo sapiens;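 also: cytotoxicity by LDH release measuring loss of membrane integrity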

T3 sequence (P14735 whole entry): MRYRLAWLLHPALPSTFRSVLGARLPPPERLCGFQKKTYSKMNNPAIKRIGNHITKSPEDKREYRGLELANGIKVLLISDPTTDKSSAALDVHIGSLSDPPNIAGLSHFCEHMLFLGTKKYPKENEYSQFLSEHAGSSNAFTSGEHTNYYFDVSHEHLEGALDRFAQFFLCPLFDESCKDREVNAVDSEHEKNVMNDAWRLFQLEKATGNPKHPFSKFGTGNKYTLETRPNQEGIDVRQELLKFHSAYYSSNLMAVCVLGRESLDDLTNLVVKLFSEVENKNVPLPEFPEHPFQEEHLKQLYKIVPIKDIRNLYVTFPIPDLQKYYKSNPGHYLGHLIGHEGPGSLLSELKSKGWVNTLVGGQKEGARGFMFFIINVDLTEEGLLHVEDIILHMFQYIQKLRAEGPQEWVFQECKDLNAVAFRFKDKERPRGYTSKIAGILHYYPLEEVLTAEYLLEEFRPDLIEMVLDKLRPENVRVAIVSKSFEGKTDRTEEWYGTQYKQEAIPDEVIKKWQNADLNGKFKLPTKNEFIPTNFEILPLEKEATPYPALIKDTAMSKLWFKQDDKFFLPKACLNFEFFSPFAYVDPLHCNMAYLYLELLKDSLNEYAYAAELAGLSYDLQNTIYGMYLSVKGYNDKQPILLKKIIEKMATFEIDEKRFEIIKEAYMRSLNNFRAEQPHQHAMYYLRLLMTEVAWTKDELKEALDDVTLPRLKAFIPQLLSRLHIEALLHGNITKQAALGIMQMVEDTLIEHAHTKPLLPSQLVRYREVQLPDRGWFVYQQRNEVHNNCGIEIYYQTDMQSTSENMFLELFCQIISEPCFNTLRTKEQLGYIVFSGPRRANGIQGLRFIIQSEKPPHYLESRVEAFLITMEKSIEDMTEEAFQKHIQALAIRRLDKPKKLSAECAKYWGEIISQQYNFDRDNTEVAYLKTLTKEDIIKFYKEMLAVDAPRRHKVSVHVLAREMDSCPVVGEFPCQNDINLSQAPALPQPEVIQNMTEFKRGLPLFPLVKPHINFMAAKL
DNA dC->dU-editing enzyme APOBEC-3A, sequence (P31941 whole entry): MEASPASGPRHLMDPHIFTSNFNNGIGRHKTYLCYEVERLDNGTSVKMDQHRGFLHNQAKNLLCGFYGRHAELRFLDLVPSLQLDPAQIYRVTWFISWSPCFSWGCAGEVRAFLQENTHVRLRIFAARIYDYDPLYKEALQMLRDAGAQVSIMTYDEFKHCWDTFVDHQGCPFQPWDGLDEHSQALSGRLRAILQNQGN
Beta-lactamase (Pseudomonas aeruginosa, UniProt Q79MP6), sequence (Q79MP6 whole entry): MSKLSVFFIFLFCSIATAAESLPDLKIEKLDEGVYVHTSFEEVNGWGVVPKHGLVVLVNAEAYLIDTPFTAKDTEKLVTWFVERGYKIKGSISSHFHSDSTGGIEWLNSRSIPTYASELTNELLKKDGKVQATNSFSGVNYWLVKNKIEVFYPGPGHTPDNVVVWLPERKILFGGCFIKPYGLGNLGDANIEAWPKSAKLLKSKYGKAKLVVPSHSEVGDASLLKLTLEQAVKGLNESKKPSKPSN
DNA dC->dU-editing enzyme APOBEC-3G, sequence (Q9HC16 whole entry): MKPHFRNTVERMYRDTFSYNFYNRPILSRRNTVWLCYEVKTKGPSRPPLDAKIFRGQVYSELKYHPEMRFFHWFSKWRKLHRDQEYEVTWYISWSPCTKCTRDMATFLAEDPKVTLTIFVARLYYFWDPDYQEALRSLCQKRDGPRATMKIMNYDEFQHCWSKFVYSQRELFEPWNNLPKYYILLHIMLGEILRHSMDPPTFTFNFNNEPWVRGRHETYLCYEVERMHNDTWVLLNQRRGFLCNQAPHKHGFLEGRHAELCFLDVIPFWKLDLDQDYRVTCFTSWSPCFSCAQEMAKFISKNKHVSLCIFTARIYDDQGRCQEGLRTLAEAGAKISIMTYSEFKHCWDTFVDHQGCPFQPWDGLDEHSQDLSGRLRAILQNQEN
ALK tyrosine kinase receptor, sequence (Q9UM73 whole entry): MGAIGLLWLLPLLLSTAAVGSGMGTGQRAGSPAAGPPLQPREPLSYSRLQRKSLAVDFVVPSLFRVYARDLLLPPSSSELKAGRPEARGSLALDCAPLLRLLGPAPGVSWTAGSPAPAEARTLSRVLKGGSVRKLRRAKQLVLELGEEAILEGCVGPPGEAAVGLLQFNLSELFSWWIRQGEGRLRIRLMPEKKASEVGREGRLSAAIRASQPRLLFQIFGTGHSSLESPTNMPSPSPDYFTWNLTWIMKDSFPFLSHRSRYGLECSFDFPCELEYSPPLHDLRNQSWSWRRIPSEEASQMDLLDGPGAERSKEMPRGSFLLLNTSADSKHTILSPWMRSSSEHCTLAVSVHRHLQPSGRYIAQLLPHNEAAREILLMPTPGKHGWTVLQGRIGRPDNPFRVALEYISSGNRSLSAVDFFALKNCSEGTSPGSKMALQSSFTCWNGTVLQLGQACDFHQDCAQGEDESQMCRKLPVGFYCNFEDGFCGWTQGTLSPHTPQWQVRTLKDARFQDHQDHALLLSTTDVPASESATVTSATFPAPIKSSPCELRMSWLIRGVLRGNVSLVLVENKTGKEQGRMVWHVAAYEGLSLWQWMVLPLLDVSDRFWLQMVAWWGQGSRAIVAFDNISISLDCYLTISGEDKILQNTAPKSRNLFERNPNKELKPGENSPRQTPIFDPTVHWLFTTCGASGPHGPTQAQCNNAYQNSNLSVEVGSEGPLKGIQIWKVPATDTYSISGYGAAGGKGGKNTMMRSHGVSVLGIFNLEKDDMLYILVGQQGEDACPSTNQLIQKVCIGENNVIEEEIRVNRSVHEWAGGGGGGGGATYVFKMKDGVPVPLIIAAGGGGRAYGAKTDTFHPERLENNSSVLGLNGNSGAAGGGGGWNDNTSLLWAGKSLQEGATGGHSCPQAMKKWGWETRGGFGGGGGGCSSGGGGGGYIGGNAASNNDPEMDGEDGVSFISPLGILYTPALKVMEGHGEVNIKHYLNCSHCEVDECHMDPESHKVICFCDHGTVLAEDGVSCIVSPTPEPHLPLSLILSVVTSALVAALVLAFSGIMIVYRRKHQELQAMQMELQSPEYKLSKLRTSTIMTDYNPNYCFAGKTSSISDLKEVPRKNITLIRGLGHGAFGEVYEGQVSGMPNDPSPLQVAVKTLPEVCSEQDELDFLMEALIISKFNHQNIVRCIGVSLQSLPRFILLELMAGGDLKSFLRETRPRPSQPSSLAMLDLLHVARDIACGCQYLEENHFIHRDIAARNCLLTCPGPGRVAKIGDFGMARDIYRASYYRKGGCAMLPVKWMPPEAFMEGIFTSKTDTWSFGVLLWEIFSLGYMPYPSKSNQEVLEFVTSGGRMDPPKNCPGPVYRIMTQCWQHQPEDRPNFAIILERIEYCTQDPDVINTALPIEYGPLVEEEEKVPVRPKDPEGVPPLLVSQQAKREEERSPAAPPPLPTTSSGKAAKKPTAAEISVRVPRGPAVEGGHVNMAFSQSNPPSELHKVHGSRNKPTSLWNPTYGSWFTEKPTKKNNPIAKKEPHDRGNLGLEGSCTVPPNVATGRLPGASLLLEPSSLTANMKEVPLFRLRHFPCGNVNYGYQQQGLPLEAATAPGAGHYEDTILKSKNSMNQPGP
Tyrosine-protein kinase BTK, sequence (Q06187 whole entry): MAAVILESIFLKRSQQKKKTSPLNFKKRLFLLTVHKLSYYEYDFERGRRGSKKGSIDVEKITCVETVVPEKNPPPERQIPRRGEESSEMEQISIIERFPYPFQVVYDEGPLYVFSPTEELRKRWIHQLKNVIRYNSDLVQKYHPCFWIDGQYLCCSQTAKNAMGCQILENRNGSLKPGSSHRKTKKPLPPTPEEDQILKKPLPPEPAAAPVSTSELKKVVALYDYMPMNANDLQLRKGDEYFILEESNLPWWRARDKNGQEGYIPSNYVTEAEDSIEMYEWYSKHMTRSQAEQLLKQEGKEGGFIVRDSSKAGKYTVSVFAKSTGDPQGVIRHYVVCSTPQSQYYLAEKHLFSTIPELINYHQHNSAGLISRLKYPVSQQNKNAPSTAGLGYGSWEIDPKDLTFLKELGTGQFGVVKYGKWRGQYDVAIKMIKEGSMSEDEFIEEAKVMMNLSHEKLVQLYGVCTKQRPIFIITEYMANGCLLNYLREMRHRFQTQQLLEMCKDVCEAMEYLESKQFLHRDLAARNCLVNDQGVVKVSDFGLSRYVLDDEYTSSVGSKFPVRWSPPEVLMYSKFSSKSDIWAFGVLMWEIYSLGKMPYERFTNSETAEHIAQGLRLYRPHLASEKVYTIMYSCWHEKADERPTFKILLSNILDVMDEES
Beta-lactamase (Salmonella choleraesuis (strain SC-B67), UniProt Q5J463), sequence (Q5J463 whole entry): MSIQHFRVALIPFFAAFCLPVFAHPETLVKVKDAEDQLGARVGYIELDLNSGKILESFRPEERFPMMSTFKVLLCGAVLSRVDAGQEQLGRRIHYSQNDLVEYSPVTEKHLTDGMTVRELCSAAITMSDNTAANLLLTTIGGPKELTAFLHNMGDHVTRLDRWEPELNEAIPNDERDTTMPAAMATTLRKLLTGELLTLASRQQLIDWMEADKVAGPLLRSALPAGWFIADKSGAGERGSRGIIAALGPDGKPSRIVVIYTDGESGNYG
Mitogen-activated protein kinase 14, sequence (Q16539 whole entry): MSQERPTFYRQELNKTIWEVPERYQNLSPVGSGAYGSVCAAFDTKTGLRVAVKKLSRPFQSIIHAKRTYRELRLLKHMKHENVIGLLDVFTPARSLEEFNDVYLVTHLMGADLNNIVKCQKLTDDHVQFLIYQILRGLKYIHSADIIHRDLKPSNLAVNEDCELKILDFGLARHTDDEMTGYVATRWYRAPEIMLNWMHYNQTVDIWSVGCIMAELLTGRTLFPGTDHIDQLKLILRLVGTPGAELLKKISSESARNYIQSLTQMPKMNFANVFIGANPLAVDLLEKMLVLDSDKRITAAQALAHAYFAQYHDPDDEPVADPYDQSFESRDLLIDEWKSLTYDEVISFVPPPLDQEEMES

**Q.** Which Ki [1] does the source give for `CC(C)CC(CO)NC(=O)c1cccc(-n2nc(C(C)(C)C)cc2NC(=O)Nc2cccc3ccccc23)c1` (stereo unspecified) here?
**A.** > 6.31 µM (inactive)

**Q.** What about the Ki [2] of the same molecule?
**A.** > 6.31 µM (inactive)

**Q.** What about the Ki [3] of the same molecule?
**A.** > 6.31 µM (inactive)

**Q.** What about the Ki [4] of the same molecule?
**A.** > 7.94 µM (inactive)

**Q.** What about the Ki [5] of the same molecule?
**A.** 0.631 µM (active)

**Q.** What about the Ki [6] of the same molecule?
**A.** > 6.31 µM (inactive)

**Q.** And the Ki [7]?
**A.** > 6.31 µM (inactive)

**Q.** What about the Ki (Focal adhesion kinase 1) of the same molecule?
**A.** > 6.31 µM (inactive)

**Q.** Which IC50 [8] does the source give for `CC(=O)c1c(C)[nH]c(C(=O)CN(C)CC(=O)Nc2ccc(F)c(F)c2F)c1C` here?
**A.** > 99 µM (inactive)

**Q.** What about the IC50 [9] of the same molecule?
**A.** > 99 µM (inactive)

**Q.** With `CCOC(=O)c1c(CNCCN(CC)CC)n(C)c2cc(Br)c(OC)cc12` as the molecule, how does the AC50 [10] read?
**A.** 0.376 µM (active)

**Q.** What does the source list for `O=C(CSc1nnc(Cc2cccs2)n1Cc1ccco1)Nc1ccc(Br)cc1`?
**A.** EC50 [11]: 3.12 µM (active); EC50 [12]: 0.009 µM (active)

**Q.** For `Cn1cc(C(CC(=O)c2ccc(C3CCCCC3)cc2)C(=O)O)c2ccccc21` (stereo unspecified), which IC50 [13] is on record?
**A.** 69.6 µM (active)

**Q.** With `O=[N+]([O-])c1cnc2ccccc2c1Sc1ccccc1` as the molecule, how does the AC50 [14] read?
**A.** 39.2 µM (active)

**Q.** With `COc1cc(/C=C2/SC(=S)N(Cc3ccccc3)C2=O)cc(OC)c1O` as the molecule, how does the EC50 [15] read?
**A.** 31.9 µM (active)

**Q.** What about the IC50 (Beta-lactamase [16]) of the same molecule?
**A.** > 59.6 µM (inactive)

**Q.** And the IC50 [17]?
**A.** > 100 µM (inactive)

**Q.** What about the IC50 (Prothrombin) of the same molecule?
**A.** 2.9 µM (active)

**Q.** What about the IC50 [18] of the same molecule?
**A.** 2.36 µM (active)

**Q.** What about the IC50 (Beta-lactamase [19]) of the same molecule?
**A.** > 59.6 µM (inactive)

**Q.** What about the EC50 [20] of the same molecule?
**A.** 27.8 µM (inconclusive)

**Q.** Which EC50 (Insulin-degrading enzyme [21]) does the source give for `O=C(O)c1ccccc1Nc1ccc([N+](=O)[O-])c2nonc12` here?
**A.** > 54.7 µM (inactive)

**Q.** What about the EC50 (Insulin-degrading enzyme [22]) of the same molecule?
**A.** > 54.7 µM (inactive)

**Q.** And the EC50 (HEK293 [23])?
**A.** > 54.7 µM (inactive)

**Q.** And the IC50 (HEK293 [24])?
**A.** > 89.2 µM (inactive)
